Assay results: US20260266834A1, “Compositions And Methods For Detecting Proteins In Protein Corona” (Board of Trustees of Michigan State University, priority 2023, published 2026)

Target: T1, albumin (Homo sapiens, UniProt P02768)
T1 construct: commercial pooled healthy human plasma diluted to 55% by PBS; from tissue; host or cells: commercial pooled healthy human plasma
Assay: Abundance of albumin in protein corona proteome by LC-MS/MS
Details: PtdChos 1000 μg/ml; plasma alone over 81%
Experimental: For protein corona formation in the presence of small molecules, commercial pooled healthy human plasma diluted to 55% by PBS was first incubated with the individual small molecules or a combination of small molecules at varying concentrations (i.e., 10, 100, and 1,000 μg/ml) for 1 hour at 37° C., allowing the small molecules to interact with the biological matrix. The small molecule combinations included each of the four small molecules (glucose, triacylglycerols, diacylglycerols, and PtdChos for combination 1; PE, PtdIns, IMP, and vitamin B complex for combination 2) at the given concentration. […]
Initial processing: NPs coated with protein corona were first washed with PBS and then resuspended in 30 μl of PBS, enriched with 15 mM phosphate (pH 7.4). The bound total protein content was estimated to be around 1 μg per sample, determined via a Micro BCA™ assay (Thermo Scientific™). […]
LC-MS/MS Analysis: Dried samples were reconstituted with 1 μg of peptides in 25 μl of liquid chromatography (LC) loading buffer (3% acetonitrile (ACN), 0.1% trifluoroacetic acid (TFA)) and analyzed using LC-MS/MS. A 60-minute gradient was applied in the label-free quantification (LFQ) mode, with 5 μl aliquots injected in triplicate. Control samples (55% human plasma) were prepared with 8 μg of peptides in 200 μl of loading buffer and analyzed similarly. […]

T1 sequence (P02768 25-609): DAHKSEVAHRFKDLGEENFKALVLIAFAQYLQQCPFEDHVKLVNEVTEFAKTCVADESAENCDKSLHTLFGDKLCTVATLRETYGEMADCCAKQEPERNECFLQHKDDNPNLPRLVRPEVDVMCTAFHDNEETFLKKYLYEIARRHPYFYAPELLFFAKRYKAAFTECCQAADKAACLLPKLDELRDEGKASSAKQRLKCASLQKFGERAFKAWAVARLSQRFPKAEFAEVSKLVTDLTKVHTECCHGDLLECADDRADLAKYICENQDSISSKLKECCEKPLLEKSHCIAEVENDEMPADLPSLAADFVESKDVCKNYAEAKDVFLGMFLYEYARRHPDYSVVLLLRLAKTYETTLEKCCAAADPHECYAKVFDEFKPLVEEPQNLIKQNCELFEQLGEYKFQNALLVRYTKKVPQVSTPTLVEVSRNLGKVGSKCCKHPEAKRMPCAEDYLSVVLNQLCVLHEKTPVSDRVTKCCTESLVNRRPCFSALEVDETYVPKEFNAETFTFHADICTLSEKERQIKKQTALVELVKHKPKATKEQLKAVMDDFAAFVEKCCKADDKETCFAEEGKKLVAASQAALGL

Question: How did the “albumin representation (share of proteins)” value turn out when phosphatidylcholine [PtdChos] was run?
Answer: Its value is “around 17%”.
